Our source for the IC50 and EC50 values is US7521444B2, “Compounds for the treatment of hepatitis C” (Bristol-Myers Squibb Company, priority 2007, dated 2009).

Some results are limits rather than exact numbers.

One assay deals with T1, HCV NS5B (Hepatitis C virus genotype 1b, UniProt Q9WMX2).
T1 construct: The protein was expressed with an 18 amino acid C-terminal truncation to enhance the solubility; made in house; host or cells: E. coli BL21(DE3), pET21a
Put plainly: HCV NS5B RdRp enzyme assay (standard or modified). As to conditions: HCV NS5B RdRp genotype 1b enzyme; standard or modified assay not stated. The assay is classed as biochemical. As for the experimental part: HCV NS5B RdRp cloning, expression, and purification. The cDNA encoding the NS5B protein of HCV, genotype 1b, was cloned into the pET21a expression vector. The protein was expressed with an 18 amino acid C-terminal truncation to enhance the solubility. The E. coli competent cell line BL21(DE3) was used for expression of the protein. Cultures were grown at 37° C. for ˜4 hours until the cultures reached an optical density of 2.0 at 600 nm. The cultures were cooled to 20° C. and induced with 1 mM IPTG. Fresh ampicillin was added to a final concentration of 50 μg/ml and the cells were grown overnight at 20° C.
Cell pellets (3 L) were lysed for purification to yield 15-24 mgs of purified NS5B. The lysis buffer consisted of 20 mM Tris-HCl, pH 7.4, 500 mM NaCl, 0.5% triton X-100, 1 mM DTT, 1 mM EDTA, 20% glycerol, 0.5 mg/ml lysozyme, 10 mM MgCl2, 15 ug/ml deoxyribonuclease I, and Complete TM protease inhibitor tablets (Roche). After addition of the lysis buffer, frozen cell pellets were resuspended using a tissue homogenizer. To reduce the viscosity of the sample, aliquots of the lysate were sonicated on ice using a microtip attached to a Branson sonicator. The sonicated lysate was centrifuged at 100,000×g for 1 hr at 4° C. and filtered through a 0.2 μm filter unit (Corning).
The protein was purified using two sequential chromatography steps: Heparin sepharose CL-6B and polyU sepharose 4B (Pharmacia). The chromatography buffers were identical to the lysis buffer but contained no lysozyme, deoxyribonuclease I, MgCl2 or protease inhibitor and the NaCl concentration of the buffer was adjusted according to the requirements for charging the protein onto the column. Each column was eluted with a NaCl gradient which varied in length from 5-50 column volumes depending on the column type. After the final chromatography step, the resulting purity of the enzyme is >90% based on SDS-PAGE analysis. The enzyme was aliquoted and stored at −80° C.
Standard HCV NS5B RdRp enzyme assay. HCV RdRp genotype 1b assays were run in a final volume of 60 μl in 96 well plates (Corning 3600). The assay buffer is composed of 20 mM Hepes, pH 7.5, 2.5 mM KCl, 2.5 mM MgCl2, 1 mM DTT, 1.6 U RNAse inhibitor (Promega N2515), 0.01 mg/ml BSA (Sigma B6917), and 2% glycerol. All compounds were serially diluted (3-fold) in DMSO and diluted further in water such that the final concentration of DMSO in the assay was 2%. HCV RdRp genotype 1b enzyme was used at a final concentration of 28 nM. A polyA template was used at 6 nM, and a biotinylated oligo-dT12 primer was used at 180 nM final concentration. Template was obtained commercially (Amersham 27-4110). Biotinylated primer was prepared by Sigma Genosys. 3H-UTP was used at 0.6 μCi (0.29 μM total UTP). Reactions were initiated by the addition of enzyme, incubated at 30° C. for 60 min, and stopped by adding 25 μl of 50 mM EDTA containing SPA beads (4 μg/μl, Amersham RPNQ 0007). Plates were read on a Packard Top Count NXT after >1 hr incubation at room temperature.
Modified HCV NS5B RdRp enzyme assay. A modified enzyme assay was performed essentially as described for the standard enzyme assay except for the following: The biotinylated oligo dT12 primer was precaptured on streptavidin-coated SPA beads by mixing primer and beads in assay buffer and incubating at room temperature for one hour. Unbound primer was removed after centrifugation. The primer-bound beads were resuspended in 20 mM Hepes buffer, pH 7.5 and used in the assay at final concentrations of 20 nM primer and 0.67 μg/μl beads. Order of addition in the assay: enzyme (1.75 nM) was added to diluted compound followed by the addition of a mixture of template (0.36 nM), 3H-UTP (0.6 μCi, 0.29 μM), and primer-bound beads, to initiate the reaction; concentrations given are final. Reactions were allowed to proceed for 4 hours at 30° C.
IC50 values for compounds were determined using seven different [I]. […]

A further assay has as its system HCV replicon cells. Description: HCV replicon FRET / luciferase assay. It is filed as cell-based. As to conditions: Hepatitis C virus, 50% reduction in FRET or luciferase activity. On the procedure: FRET Assay Preparation. The HCV FRET screening assay was performed in 96-well cell culture plates. The FRET peptide (Anaspec, Inc.) (Taliani et al., Anal. Biochem. 1996, 240, 60-67) contains a fluorescence donor, EDANS, near one end of the peptide and an acceptor, DABCYL, near the other end. The fluorescence of the peptide is quenched by […] resonance energy transfer (RET) between the donor and the acceptor, but as the NS3 protease cleaves the peptide the products are released from RET quenching and the fluorescence of the donor becomes apparent. The assay reagent was made as follows: 5× cell Luciferase cell culture lysis reagent from Promega (#E153A) diluted to 1× with dH2O, NaCl added to 150 mM final, the FRET peptide diluted to 20 μM final from a 2 mM stock.
To prepare plates, HCV replicon cells, with or without a Renilla luciferase reporter gene, were trypsinized and plated in a 96-well plate with titrated test compounds added in columns 3 through 12; columns 1 and 2 contained a control compound (HCV control inhibitor), and the bottom row contained cells with DMSO only. The plates were then placed in a CO2 incubator at 37° C.
Assays. Subsequent to addition of the test compounds described above (FRET Assay Preparation), at various times the plate was removed and Alamar blue solution (Trek Diagnostics, #00-100) was added to measure cellular toxicity. After reading in a Cytoflour 4000 instrument (PE Biosystems), plates were rinsed with PBS and then used for FRET assay by the addition of 30 ul of the FRET peptide assay reagent described above (FRET Assay Preparation) per well. The plate was then placed into the Cytoflour 4000 instrument which had been set to 340 excite/490 emission, automatic mode for up to 20 cycles and the plate read in a kinetic mode. Typically, the signal to noise using an endpoint analysis after the reads was at least three-fold. Alternatively, after Alamar blue reading, plates were rinsed with PBS, then used for luciferase assay using the Promega Dual-Glo Luciferase Assay System or the Promega EnduRen Live Cell Substrate assay.
Compound analysis was performed by quantification of the relative HCV replicon inhibition and the relative cytotoxicity values. To calculate cytoxicity values, the average Alamar Blue fluorescence signals from the control wells were set as 100% non-toxic. The individual signals in each of the compound test wells were then divided by the average control signal and multiplied by 100% to determine […]. To calculate the HCV replicon inhibition values, an average background value was obtained from the two wells containing the highest amount of HCV control inhibitor at the end of the assay period. These numbers were similar to those obtained from naïve Huh-7 cells. The background numbers were then subtracted from the average signal obtained from the control wells and this number was used as 100% activity. The individual signals in each of the compound test wells were then divided by the averaged control values after background subtraction and multiplied by 100% to determine percent activity. EC50 values were calculated as the concentration which caused a 50% reduction in FRET or luciferase activity. The two numbers generated for the compound plate, percent cytoxicity and percent activity, were used to determine compounds of interest for further analysis.

T1 sequence (Q9WMX2 2420-2992): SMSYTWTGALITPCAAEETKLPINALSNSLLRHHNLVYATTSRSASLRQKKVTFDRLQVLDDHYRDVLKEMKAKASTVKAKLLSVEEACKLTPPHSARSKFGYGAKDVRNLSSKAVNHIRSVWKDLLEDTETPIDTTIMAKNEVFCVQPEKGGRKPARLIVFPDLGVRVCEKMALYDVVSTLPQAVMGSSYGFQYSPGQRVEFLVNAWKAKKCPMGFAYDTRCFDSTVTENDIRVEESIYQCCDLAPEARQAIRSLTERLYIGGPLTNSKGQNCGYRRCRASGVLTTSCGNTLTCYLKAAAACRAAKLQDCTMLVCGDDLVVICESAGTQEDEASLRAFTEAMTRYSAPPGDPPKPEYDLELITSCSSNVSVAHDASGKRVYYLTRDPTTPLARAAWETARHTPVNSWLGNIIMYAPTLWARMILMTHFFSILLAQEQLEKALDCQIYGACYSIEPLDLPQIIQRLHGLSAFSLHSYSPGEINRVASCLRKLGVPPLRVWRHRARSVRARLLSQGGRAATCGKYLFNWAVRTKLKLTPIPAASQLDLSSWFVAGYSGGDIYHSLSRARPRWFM

Consider `COc1ccc2c(c1)C1CC1(C(=O)N1CCC[C@H]3CN(C(C)=O)C[C@H]31)Cn1c-2c(C2CCCCC2)c2ccc(C(=O)NS(=O)(=O)N(C)C)cc21` (some centres unmarked), for which the IC50 on HCV NS5B fell in the range of 4.58 to 500 nM. In addition, the EC50 in the assay with HCV replicon cells is 4.58 to 500 nM.

At HCV NS5B, `COc1ccc2c(c1)C1CC1(C(=O)N1CC3CCCN(C(=O)OC(C)(C)C)C3C1)Cn1c-2c(C2CCCCC2)c2ccc(C(=O)NS(=O)(=O)N(C)C)cc21` (centres unmarked) [drawing 24] gave an IC50 of 4.58 to 500 nM. The compound also displayed an EC50 in the assay on HCV replicon cells of 4.58 to 500 nM.

The compound `COc1ccc2c(c1)C1CC1(C(=O)N1CCN3CCCC3C1)Cn1c-2c(C2CCCCC2)c2ccc(C(=O)NS(N)(=O)=O)cc21` (centres unmarked) yielded an IC50 against HCV NS5B of 4.58 to 500 nM. The compound also displayed an EC50 in the assay on HCV replicon cells of 4.58 to 500 nM.

With `COc1ccc2c(c1)C1CC1(C(=O)N1CC3CCCN(C(C)=O)C3C1)Cn1c-2c(C2CCCCC2)c2ccc(C(=O)NS(=O)(=O)C3CC3)cc21` (centres unmarked) [drawing 67], the IC50 against HCV NS5B is 4.58 to 500 nM. The same compound showed a concentration giving a half-maximal response (EC50) with HCV replicon cells of 4.58 to 500 nM.

As to `COc1ccc2c(c1)C1CC1(C(=O)N1CC3CCCN(C(C)=O)C3C1)Cn1c-2c(C2CCCCC2)c2ccc(C(=O)NS(=O)(=O)N(C)C)cc21` (centres unmarked) [drawing 34], the IC50 at HCV NS5B was in the range of 4.58 to 500 nM. Also, the EC50 in the assay with HCV replicon cells lay within 4.58 to 500 nM.

The compound `COc1ccc2c(c1)C1CC1(C(=O)N1CC3CN(C(C)=O)CC3C1)Cn1c-2c(C2CCCCC2)c2ccc(C(=O)NS(=O)(=O)N(C)C)cc21` (centres unmarked) had an IC50 at HCV NS5B of 4.58 to 500 nM. This compound came in with an EC50 in the assay with HCV replicon cells of 4.58 to 500 nM.

`COc1ccc2c(c1)C1CC1(C(=O)N1CCN3CCC[C@@H]3C1)Cn1c-2c(C2CCCCC2)c2ccc(C(=O)NS(=O)(=O)N3CCOCC3)cc21` (some centres unmarked) returned an IC50 against HCV NS5B of 4.58 to 500 nM. The EC50 in the assay on HCV replicon cells is 4.58 to 500 nM.

`COc1ccc2c(c1)C1CC1(C(=O)N1CC3CNCC3C1)Cn1c-2c(C2CCCCC2)c2ccc(C(=O)NS(=O)(=O)C3CC3)cc21` (centres unmarked) yielded a 50% inhibitory concentration (IC50) at HCV NS5B of 4.58 to 500 nM. The same compound had an EC50 in the assay with HCV replicon cells greater than 1000 nM.

Compound `COc1ccc2c(c1)C1CC1(C(=O)N1CCC[C@H]3CN(Cc4ccccc4)C[C@H]31)Cn1c-2c(C2CCCCC2)c2ccc(C(=O)NS(N)(=O)=O)cc21` (some centres unmarked) returned an IC50 against HCV NS5B of 4.58 to 500 nM. The compound further registered an EC50 in the assay with HCV replicon cells of 4.58 to 500 nM.

Take `COc1ccc2c(c1)C1CC1(C(=O)N1CCN3CCC[C@H]3C1)Cn1c-2c(C2CCCCC2)c2ccc(C(=O)NS(C)(=O)=O)cc21` (some centres unmarked): the IC50 against HCV NS5B is 4.58 to 500 nM. Besides, the EC50 with HCV replicon cells fell in the range of 4.58 to 500 nM.

With `COc1ccc2c(c1)C1CC1(C(=O)N1CC3CCCN(C)C3C1)Cn1c-2c(C2CCCCC2)c2ccc(C(=O)NS(=O)(=O)C3CC3)cc21` (centres unmarked), the IC50 on HCV NS5B fell in the range of 4.58 to 500 nM. Besides, in the assay with HCV replicon cells, the EC50 lay within 4.58 to 500 nM.

The compound `COc1ccc2c(c1)C1CC1(C(=O)N1CCN3CCCC3C1)Cn1c-2c(C2CCCCC2)c2ccc(C(=O)NS(=O)(=O)C(C)C)cc21` (centres unmarked) had an IC50 against HCV NS5B of 4.58 to 500 nM. In the assay on HCV replicon cells, the EC50 was in the range of 4.58 to 500 nM.

As to `COc1ccc2c(c1)C1CC1(C(=O)N1CC3CCCNC3C1)Cn1c-2c(C2CCCCC2)c2ccc(C(=O)NS(=O)(=O)C3CC3)cc21` (centres unmarked), at HCV NS5B, the IC50 was 4.58 to 500 nM. Also, the concentration giving a half-maximal response (EC50) in the assay on HCV replicon cells fell in the range of 4.58 to 500 nM.
